Data: patent US20100331239A1, “CD14 AND PEPTIDES THEREOF FOR PROTECTION OF CELLS AGAINST CELL DEATH” (THE MEDICAL RESEARCH, INFRASTRUCTURE AND HEALTH SERVICES, priority 2008, published 2010)

B1: rhCD14: recombinant human soluble CD14 polypeptide, not anchored to the cell membrane (SEQ ID NO: 5) (protein, listed as Homo sapiens)
chain: MERASCLLLLLLPLVHVSATTPEPCELDDEDFRCVCNFSEPQPDWSEAFQCVSAVEVEIHAGGLNLEPFLKRVDADADPRQYADTVKALRVRRLTVGAAQVPAQLLVGALRVLAYSRLKELTLEDLKITGTMPPLPLEATGLALSSLRLRNVSWATGRSWLAELQQWLKPGLKVLSIAQAHSPAFSCEQVRAFPALTSLDLSDNPGLGERGLMAALCPHKFPAIQNLALRNTGMETPTGVCAALAAAGVQPHSLDLSHNSLRATVNPSAPRCMWSSALNSLNLSFAGLEQVPKGLPAKLRVLDLSCNRLNRAPQPDELPEVDNLTLDGNPFLVPGTALPHEGSMNSGVVPACARSTLSVGVSGTLVLLQGARGFA

Legend:
[1] = tested on: intracellular expression of MO2 in lymphocytes; assay: Blocking of monocyte secretion of CD14 in vitro; intracellular MO2 staining in lymphocytes; format: cell-based; conditions: cell secretion blocked; staining with anti MO2 antibodies
From the text: Further support for the concept that lymphocytes are capable of MO2 uptake is found in another experiment in which monocyte secretion of CD14 in vitro was blocked with Brefeldin A (a drug blocking the Golgi system thus inhibiting cell secretion).

[2] = tested on: human lymphocytes and human CD3 positive lymphocytes; assay: Gliotoxin- or PMA-induced apoptosis of human mononuclear cells cultured overnight; FACS readout by DiOC6(3), 7AAD or cell size; format: cell-based; conditions: for protection of lymphocytes from gliotoxin-induced apoptosis: CD3+ cultures, DioC6(3) staining, pMO2 0.5 or 0.25 mg/ml (0.2 and 0.1 mM), FIG. 11; for protective (anti-apoptotic) effect in vitro: DiOC6(3), 7AAD and cell size, FIGS. 11-13
Protocol: The changes in the mitochondria membrane potential can be measured with 3,3′-Dihexyloxacarbocyanine iodide (Dioc6(3)). The binding to the mitochondria membrane is relative to its potential, the highest binding occurs in live and intact cells; the lowest in dead cells. The binding is monitored by flow cytometry (FL1 channel).
After overnight culture (see below), cells are washed in PBS and are treated with 40 nM DiOC6(3) for 15 min at 37° C. Cells are then washed in PBS, stained for lymphocytes surface markers such as CD3/CD4/CD8, with the appropriate antibodies, for 30 min at 4° C., washed again in PBS, resuspended in 0.5 ml PBS and analyzed using the FACS (flow cytometry).
7AAD is a nucleic acid dye that binds to […] DNA, selectively to GC regions of DNA. No binding is observed in live cells. The binding to apoptotic cells is proportional to the degree of apoptosis and membrane damage. The 7AAD fluorescence is detected in the far-red range of the spectrum (650 nm), in the FL3 channel.
After overnight culture (see below), cells are washed with PBS and are stained with monoclonal antibodies (CD3/4/8) for 30 min at 4° C., then washed again in PBS. Cells are then incubated with 7AAD (20 μg/ml) for 20 min at 4° C. in the dark and directly analyzed using the FACS (flow cytometry).
As a result of the process of apoptosis, cells undergo a cytoplasm shrinkage, which can be detected as a decrease in cell size as observed by the forward scatter position of the cells analyzed by FACS; the smaller lymphocytes are apoptotic, the larger are intact.
Mononuclear cells, freshly obtained from peripheral blood on a Ficoll-Hypaque gradient are washed in PBS and resuspended in RPMI supplemented with 10% fetal calf serum, glutamine, antibiotics, non-essential amino acids and sodium pyruvate, at a concentration of 4×10^6 cells per ml. Cells (0.5 ml per well) are incubated overnight, in 24 well plates, in the presence of Gliotoxin (0.1 μg/ml) or PMA (1 μg/ml) and with pMO2 or pSCR peptides (0.2, 0.1, 0.05 mM equivalent to 0.5, 0.25 and 0.125 mg/ml); as a control DMSO—the diluent of the peptides—was used at the appropriate dilution or with recombinant human CD14 (10 and 5 μg/ml). For the experiments aimed at neutralizing the human rCD14, monoclonal antibodies against CD14 or against actin (as a control) are added, together with the CD14, at a final concentration of 15 μg/ml.
After the overnight incubation, cells are processed for apoptosis assessment using the methods described above.
The effect of recombinant human CD14 on the induction of apoptosis in human lymphocytes and in human CD3 positive lymphocytes was tested in vitro. Human mononuclear cells obtained from healthy individuals were incubated with apoptosis inducers, gliotoxin or PMA. […] Namely, recombinant human CD14 protects lymphocytes from gliotoxin-induced apoptosis. […] Two parameters were measured: cell size (A), and mitochondrial membrane potential determined by Dioc6 (3) binding (B). In (A) there is a shift to the left (characteristic to apoptotic cells) under gliotoxin treatment compared to “medium”, and a reversal to normal size in the presence of rhCD14. In (B) low binding of Dioc6 (3) in the presence of gliotoxin (characteristic to apoptotic cells) can be observed, and the effect is reversed by rhCD14.
In addition, in order to investigate the spectrum of effective concentrations of rhCD14, mononuclear cells were cultured overnight in the presence of gliotoxin and varying concentrations of rhCD14, ranging from 10 to 0.6 μg/ml. Apoptosis of CD3+ cells was measured with Dioc6(3). As expected, cells cultured without gliotoxin included a very low number of apoptotic cells, about 0.3% of the cultured cells.
As explained above, the epitopes recognized by this monoclonal MO2 antibody were mapped using a random peptide library, and one of the specific peptides (amino acids 139-160 of CD14; pMO2) was synthesized. […]

[3] = tested on: CD3 positive and CD3 negative cells; assay: Intracellular binding / penetration of pMO2-biotin into mononuclear cells (streptavidin-APC, FACS); format: cell-based, human
Protocol: The cells were incubated for 3 hours with pMO2-biotin or DMSO (the peptide diluent) as a control. In order to visualize the biotin-labeled pMO2, the cells were washed and stained with anti-CD3 antibodies and fluorescent streptavidin (streptavidin-APC), with or without prior fixation and permeabilization.

[4] = 0.2 mM peptide, gliotoxin, FIGS. 14, 15

Row | Molecule | change of intracellular expression of MO2 in lymphocytes [1] | efficiency in protecting cells from apoptosis [2, 4] | protection of lymphocytes from gliotoxin-induced apoptosis [2] | protective (anti-apoptotic) effect in vitro ([2]; gliotoxin) | percent protection from apoptosis ([2]; 0.05 mM peptide, gliotoxin vs gliotoxin and control diluent, FIG. 14) | efficiency in protecting cells from apoptosis ([2]; 0.1 mM peptide, gliotoxin, FIG. 14) | penetration into lymphocytes ([3]; 3 hours incubation with pMO2-biotin, visualized only upon fixation and permeabilization, FIG. 16) | time of incubation for penetration into the majority of the lymphocytes ([3]; CD3 positive and CD3 negative cells in vitro, FIG. 17) [min] | effect on induced apoptosis of lymphocytes and of CD3 positive lymphocytes ([2]; apoptosis inducers gliotoxin or PMA, added during the incubation) | concentration at which inhibition of apoptosis is already effective ([2]; gliotoxin, overnight, rhCD14 titrated 10 to 0.6 μg/ml, CD3+ cells, Dioc6(3), FIG. 6) [µg/mL]
1 | C[C@H]1CCC/C=C/[C@@H]2C[C@H](O)C[C@H]2[C@H](O)/C=C/C(=O)O1 [Brefeldin A] | substantial decrease |  |  |  |  |  |  |  |  | 
2 | ALGTSLARLSNRLWSVGTAWSR (listed as Homo sapiens) [pSCR, scrambled control peptide based on the same amino acids as pMO2, reference compound] |  | no protection | not | did not show any protective effect |  |  |  |  |  | 
3 | ATGLALSSLRLRNVSWATGRSW [pMO2] |  | very high efficiency | equally protect | retain the anti-apoptotic effect of the whole recombinant human CD14 | about 45% | very high efficiency | penetrates lymphocytes | ≤ 10 |  | 
4 | B1 |  |  | equally protect |  |  |  |  |  | blocked significantly | 1.25
